Measured values: ChEMBL document CHEMBL1126780, “Selective non-nucleoside HIV-1 reverse transcriptase inhibitors. New 2,3-dihydrothiazolo[2,3-a]isoindol-5(9bH)-ones and related compounds with anti-HIV-1 activity” (J Med Chem, 1993)
Counter-ions that a name gives are not always drawn.

How the values were obtained:
[1] = target: Human immunodeficiency virus type 1 reverse transcriptase (Human immunodeficiency virus 1, UniProt Q72547); assay: Inhibitory activity against HIV-1 reverse transcriptase (HIV-RT)
MT2 = assay: Inhibitory concentration which prevents the spread of HIV-1 IIIB infection in MT2 T-lymphoid cells; assay type: functional, cell-based; conditions: Homo sapiens

`O=C1c2ccc(Cl)cc2C2(c3ccccc3)SCCN12` (stereo not given) showed an IC50 [1] of 0.19 µM.
With `O=C1c2ccccc2C2(c3ccccc3)NCCCN12` (stereo not given) the IC50 [1] was over 10 µM.
Molecule `O=C1c2cnccc2C2(c3ccccc3)SCCN12` (stereo not given) has an IC50 [1] of over 100 µM.
With `Cc1cccc(C23SCCN2C(=O)c2ccccc23)n1` (stereo not given) the IC50 [1] was 4.1 µM.
`Cc1ccc(C23SCCN2C(=O)c2ccccc23)cc1` (stereo not given) gave an IC50 [1] of 0.77 µM.
`COC(=O)[C@H]1CSC2(c3ccccc3)c3ccccc3C(=O)N12` (stereo not given in full) was tested, and the IC50 [1] was 0.22 µM.
Molecule `C[C@H]1CN2C(=O)c3ccccc3C2(c2ccccc2)O1` (stereo not given in full) has an IC50 [1] of over 100 µM.
In the case of `CCc1cc(NCc2nc3c(Cl)ccc(Cl)c3o2)c(O)nc1C` [L-697661], the IC50 [1] is reported as 0.001 µM and the IC50 (MT2) is reported as 0.08 µM.
For `O=C1c2ccc(C(F)(F)F)cc2C2(c3ccccc3)SCCN12` (stereo not given), the IC50 [1] was 17.7 µM.
`O=C1c2ccccc2C2(c3ccccc3)N1CCS2(=O)=O` (stereo not given) showed an IC50 [1] of over 10 µM.
In the case of `O=C1c2ccccc2C2(c3ccccc3)NCCN12` (stereo not given), the IC50 [1] is reported as over 100 µM.
`O=C1c2ccccc2C2(c3cccc4c3CCC4)SCCN12` (stereo not given) was tested, and the IC50 [1] was 0.9 µM.
For `Nc1cccc(C23SCCN2C(=O)c2ccccc23)c1` (stereo not given), the IC50 [1] was 4.6 µM.
With `O=C1c2ccccc2C2(c3ccccc3)CCCCN12` (stereo not given) the IC50 [1] was 75.5 µM.
In the case of `O=C1c2ccccc2[C@]2(c3ccccc3)SCCN12`, the IC50 [1] is reported as 39.6 µM.
Molecule `O=C1c2ccccc2[C@@]2(c3ccccc3)SCCN12` has an IC50 [1] of 0.28 µM and an IC50 (MT2) of 0.392 µM.
`O=C1c2ccccc2C2(c3ccco3)SCCN12` (stereo not given) was tested, and the IC50 [1] was 1.35 µM.
`Cc1cccc(C23SCCN2C(=O)c2cccnc23)n1` (stereo not given) gave an IC50 [1] of 6.6 µM.
Work on `O=C1c2cc3ccccc3cc2C2(c3ccccc3)SCCN12` (stereo not given) yielded an IC50 [1] of 10 µM.
For `O=C1c2ccccc2C2(c3ccccc3)OCCN12` (stereo not given), the IC50 [1] was 6.1 µM.
Work on `O=C1c2ccc3ccccc3c2C2(c3ccccc3)SCCN12` (stereo not given) yielded an IC50 [1] of 26 µM.
For `O=C1c2ccccc2C2(c3ccc(Cl)cc3)SCCN12` (stereo not given), the IC50 [1] was 4 µM.
`O=C1c2ccccc2C2(c3cccc4ccccc34)SCCN12` (stereo not given) showed an IC50 [1] of 0.13 µM.
`O=C1c2ccccc2C2(c3cccc(C(F)(F)F)c3)SCCN12` (stereo not given) showed an IC50 [1] of 1.05 µM.
In the case of `O=C1c2cccnc2C2(c3ccccn3)SCCN12` (stereo not given), the IC50 [1] is reported as 23 µM.
For `O=C1c2ccccc2C2(c3ccccc3)SCCCN12` (stereo not given), the IC50 [1] was 2.2 µM.
`CC(C)=CCN1Cc2cccc3[nH]c(=S)n(c23)C[C@@H]1C` showed an IC50 (MT2) of 0.217 µM.
`O=C1c2ccccc2C2(c3cccc([N+](=O)[O-])c3)SCCN12` (stereo not given) was tested, and the IC50 [1] was 0.86 µM.
In the case of `O=C1c2ccccc2C2(c3cccc(Cl)c3)SCCN12` (stereo not given), the IC50 [1] is reported as 0.14 µM.
For `Cc1cc(C)cc(C23SCCN2C(=O)c2ccccc23)c1` (stereo not given), the IC50 [1] was 0.084 µM.
`O=C1c2ccccc2C2(c3cc(Cl)cc(Cl)c3)SCCN12` (stereo not given) was tested, and the IC50 [1] was 0.59 µM.
With `Cc1ccc(C)c(C23SCCN2C(=O)c2ccccc23)c1` (stereo not given) the IC50 [1] was 0.97 µM.
`O=C1c2cccc(Cl)c2C2(c3ccccc3)SCCN12` (stereo not given) showed an IC50 [1] of 0.29 µM.
Work on `COc1ccc(C23SCCN2C(=O)c2ccccc23)cc1` (stereo not given) yielded an IC50 [1] of over 30 µM.
`CCc1cccc(C23SCCN2C(=O)c2ccccc23)c1` (stereo not given) gave an IC50 [1] of 1.1 µM.
Molecule `Nc1ccc2c(c1)C1(c3ccccc3)SCCN1C2=O` (stereo not given) has an IC50 [1] of 4.5 µM.
`O=C1c2c(ccc3ccccc23)C2(c3ccccc3)SCCN12` (stereo not given) gave an IC50 [1] of over 100 µM.
In the case of `O=C1c2ccccc2C2(c3cccnc3)SCCN12` (stereo not given), the IC50 [1] is reported as 28 µM.
For `O=C1c2ncccc2C2(c3ccccc3)SCCN12` (stereo not given), the IC50 [1] was over 100 µM.
`O=C1c2ccccc2C2(c3ccc(Cl)c(Cl)c3)SCCN12` (stereo not given) gave an IC50 [1] of 4 µM.
`O=C1c2ccccc2C2(c3cccc(O)c3)SCCN12` (stereo not given) was tested, and the IC50 [1] was 12.7 µM.
Molecule `S=C1c2ccccc2C2(c3ccccc3)SCCN12` (stereo not given) has an IC50 [1] of 3.5 µM.
`Cc1ccc2c(c1)C1(c3ccccc3)SCCN1C2=O` (stereo not given) showed an IC50 [1] of 0.72 µM.
`O=C1c2ccc([N+](=O)[O-])cc2C2(c3ccccc3)SCCN12` (stereo not given) showed an IC50 [1] of 10 µM.
For `O=C1c2ccncc2C2(c3ccccc3)SCCN12` (stereo not given), the IC50 [1] was 17 µM.
`N#Cc1cccc(C23SCCN2C(=O)c2ccccc23)c1` (stereo not given) was tested, and the IC50 [1] was 1.81 µM.
`C[C@H]1COC2(c3ccccc3)c3ccccc3C(=O)N12` (stereo not given in full) showed an IC50 [1] of 73 µM.
In the case of `Cc1ccc2c(c1)C(=O)N1CCSC21c1ccccc1` (stereo not given), the IC50 [1] is reported as 10 µM.
Work on `O=C1c2ccccc2C2(c3ccccc3)Sc3ccccc3CN12` (stereo not given) yielded an IC50 [1] of 40 µM.
Molecule `O=C1c2ccccc2[C@@]2(c3cccc4ccccc34)SCCN12` has an IC50 [1] of 0.15 µM and an IC50 (MT2) of 0.046 µM.
In the case of `O=C1c2cccnc2C2(c3ccccc3)SCCN12` (stereo not given), the IC50 [1] is reported as 3.45 µM.
With `O=C1c2cc(Cl)c(Cl)cc2C2(c3ccccc3)SCCN12` (stereo not given) the IC50 [1] was 4.48 µM.
`O=C1c2ccccc2C2(c3cccs3)SCCN12` (stereo not given) showed an IC50 [1] of 2.65 µM.
`O=C1c2ccccc2C2(c3ccc[nH]3)SCCN12` (stereo not given) gave an IC50 [1] of over 100 µM.
With `COc1ccc2c(c1)C(=O)N1CCSC21c1ccccc1` (stereo not given) the IC50 [1] was 4 µM.
`O=C1c2cc(Cl)ccc2C2(c3ccccc3)SCCN12` (stereo not given) showed an IC50 [1] of 24 µM.
Molecule `Cc1cccc([C@]23SCCN2C(=O)c2ccccc23)c1` has an IC50 [1] of 0.035 µM and an IC50 (MT2) of 0.051 µM.
Molecule `O=C1c2ccccc2C2(c3ccccc3)OCCCN12` (stereo not given) has an IC50 [1] of 51 µM.
`CCNc1cccnc1N1CCN(C(=O)c2cc3cc(OC)ccc3[nH]2)CC1` [ATEVIRDINE MESYLATE] gave an IC50 (MT2) of 1.59 µM.
`COc1ccc2c(c1)C1(c3ccccc3)SCCN1C2=O` (stereo not given) showed an IC50 [1] of 3.6 µM.
With `C[C@@H]1COC2(c3ccccc3)c3ccccc3C(=O)N12` (stereo not given in full) the IC50 [1] was 40 µM.
With `COc1cccc(C23SCCN2C(=O)c2ccccc23)c1` (stereo not given) the IC50 [1] was 0.97 µM.
`Cc1ccnc(C23SCCN2C(=O)c2ccccc23)c1` (stereo not given) gave an IC50 [1] of 1 µM.
For `Cc1ccc(C23SCCN2C(=O)c2ccccc23)cc1C` (stereo not given), the IC50 [1] was 0.39 µM.
In the case of `O=C1c2ccccc2C2(c3ccccc3)CCCN12` (stereo not given), the IC50 [1] is reported as 15 µM.
Work on `Cc1ccnc2c1NC(=O)c1cccnc1N2C1CC1` [NEVIRAPINE] yielded an IC50 (MT2) of 0.303 µM.
For `O=C1c2ccccc2C2(c3ccncc3)SCCN12` (stereo not given), the IC50 [1] was over 30 µM.
Work on `CC(C)c1cccc(C23SCCN2C(=O)c2ccccc23)c1` (stereo not given) yielded an IC50 [1] of 2.1 µM.
For `Cc1cccc(C23SCCN2C(=O)c2ccccc23)c1C` (stereo not given), the IC50 [1] was 1.65 µM.
With `O=C1c2ccccc2C2(c3c4ccccc4cc4ccccc34)SCCN12` (stereo not given) the IC50 [1] was 0.9 µM.
With `CC(C)c1ccc(C23SCCN2C(=O)c2ccccc23)cc1` (stereo not given) the IC50 [1] was 10 µM.
`NC(=O)[C@H]1CSC2(c3ccccc3)c3ccccc3C(=O)N12` (stereo not given in full) was tested, and the IC50 [1] was 59 µM.
For `O=C1c2ccc(Cl)cc2[C@@]2(c3ccccc3)SCCN12`, the IC50 [1] was 0.09 µM and the IC50 (MT2) was 0.074 µM.
Molecule `Cc1cccc(C23SCCN2C(=O)c2ccccc23)c1` (stereo not given) has an IC50 [1] of 0.035 µM.
`Cc1cccc2c1C(=O)N1CCSC21c1ccccc1` (stereo not given) gave an IC50 [1] of 8 µM.
`O=C(O)[C@H]1CSC2(c3ccccc3)c3ccccc3C(=O)N12` (stereo not given in full) gave an IC50 [1] of over 100 µM.
For `O=C1c2ccccc2C2(c3ccccc3)SCCN12` (stereo not given), the IC50 [1] was 0.7 µM.
In the case of `Cc1cc(C)cc([C@]23SCCN2C(=O)c2ccccc23)c1`, the IC50 [1] is reported as 0.016 µM and the IC50 (MT2) is reported as 0.01 µM.
Work on `Cc1ccccc1C12SCCN1C(=O)c1ccccc12` (stereo not given) yielded an IC50 [1] of 6.3 µM.
`O=C1c2ccccc2C2(c3ccccc3)N1CC[S+]2[O-]` (stereo not given) gave an IC50 [1] of 1.45 µM.
Molecule `C[C@@H]1CN2C(=O)c3ccccc3C2(c2ccccc2)O1` (stereo not given in full) has an IC50 [1] of 37.6 µM.
With `Cc1ccnc(C23SCCN2C(=O)c2cccnc23)c1` (stereo not given) the IC50 [1] was 4.6 µM and the IC50 (MT2) was 7.8 µM.
In the case of `O=C1c2ccccc2C2(c3ccccn3)SCCN12` (stereo not given), the IC50 [1] is reported as 5.85 µM.
